One block for each compound: values may come before it.
Legend:
GSK-3β = GSK-3β (Homo sapiens, UniProt P49841); experiment: GSK-3β activity assay (Z′-LYTE); format: biochemical; settings: n = 3; read-out: Mean EC50 in the inhibition of GSK-3β activity
Procedure: The GSK-3β phosphorylation level was determined by using a Z′-LYTE assay (Life Technologies). The assay was performed in a 384-well plate. The wells of the testing plate were divided into blank control wells (without the enzyme), enzyme control wells (without the testing substance), and testing wells (with the enzyme and the testing substance at various concentrations). The inhibition rate of the testing substance is expressed as: inhibition %=(E−S)/(E−B)×100, wherein E is the average emission ratio of enzyme control wells; B is the average emission ratio of blank control wells; S is the emission ratio of the testing sample wells. The median effective concentration of each compound (EC50 μM) was calculated by using the resultant inhibition rate of each sample at various concentrations.

[1] = system: chronic unpredictable stress (CUS) model in rats; experiment: Forced swimming test in chronic unpredictable stress (CUS) model in rats; format: in vivo; settings: 7 days
Procedure: (§1) The chronic unpredictable stress model is usually used as a depression model. The experimental method is as follows. Stimulation includes forced swimming (10° C., 6 min), tail clamping (1 cm from the tail tip, 1 min), water deprivation (24 h), fasting (24 h), isolated housing (24 h), tail suspension (1 h), immobility (2 h), high-speed horizontal oscillation (120 times/min, 1 h), foot shock for 45 minutes (mean 1 mA, time course 1 s, once/min). These stressors were randomly scheduled over a one-week period and repeated throughout the 23-day experiment. The non-stress control group was housed under normal conditions. Time: between 9:00 a.m. and 2:00 p.m. Since Day 15, the animals in each group were daily intragastrically administered with the subject medicament and double distilled water based on body weight (blank group and CUS model group) respectively, 60 minutes before the stress. […] Behavior and sleep electroencephalogram analyses were carried out on Day 22-23 of the stress. On Day 21, 60 minutes after the final administration, a sucrose solution intake test was carried out and sleep electroencephalogram was recorded simultaneously. On Day 22, EPM and forced swimming tests were carried out.

[2] = system: chronic unpredictable stress (CUS) model in rats; experiment: Sucrose solution preference in CUS model in rats; format: in vivo; settings: 7 days
Procedure: as §1

[3] = system: chronic unpredictable stress (CUS) model in rats; experiment: Autonomous movement in CUS model in rats; format: in vivo; settings: 7 days
Procedure: as §1

[4] = system: chronic unpredictable stress (CUS) model in rats; experiment: Elevated plus-maze (EPM) anxiety test in CUS model in rats; format: in vivo; settings: for anti-anxiety-like effect: doses of 30 and 60 mg/kg
Procedure: as §1

[5] = system: chronic unpredictable stress (CUS) model in rats; experiment: Depression-like behaviors overall in CUS model in rats (forced swimming, sucrose preference, autonomous mobility); format: in vivo; settings: doses of 30 and 60 mg/kg
Excerpt: The chronic unpredictable stress model is usually used as a depression model. The experimental method is as follows. […] These stressors were randomly scheduled over a one-week period and repeated throughout the 23-day experiment. The non-stress control group was housed under normal conditions. Time: between 9:00 a.m. and 2:00 p.m. Since Day 15, the animals in each group were daily intragastrically administered with the subject medicament and double distilled water based on body weight (blank group and CUS model group) respectively, 60 minutes before the stress. Imipramine (intraperitoneally, IP) was adopted as a positive control. Behavior and sleep electroencephalogram analyses were carried out on Day 22-23 of the stress. On Day 21, 60 minutes after the final administration, a sucrose solution intake test was carried out and sleep electroencephalogram was recorded simultaneously. On Day 22, EPM and forced swimming tests were carried out. Result 1: […]

[6] = Serum AST and ALT in mice after 14 days of intragastric administration; format: in vivo; settings: mouse, in vivo, 60 mg/kg/day
Procedure: Blood was collected from epicanthal, stood at room temperature for about 2 hours, and centrifuged for 12 minutes at 3000 r/min after coagulation. The serum was removed and centrifuged again. Alanine transaminase (ALT) and aspartate transaminase (AST) levels were determined

Chain of GSK-3β (P49841 whole entry): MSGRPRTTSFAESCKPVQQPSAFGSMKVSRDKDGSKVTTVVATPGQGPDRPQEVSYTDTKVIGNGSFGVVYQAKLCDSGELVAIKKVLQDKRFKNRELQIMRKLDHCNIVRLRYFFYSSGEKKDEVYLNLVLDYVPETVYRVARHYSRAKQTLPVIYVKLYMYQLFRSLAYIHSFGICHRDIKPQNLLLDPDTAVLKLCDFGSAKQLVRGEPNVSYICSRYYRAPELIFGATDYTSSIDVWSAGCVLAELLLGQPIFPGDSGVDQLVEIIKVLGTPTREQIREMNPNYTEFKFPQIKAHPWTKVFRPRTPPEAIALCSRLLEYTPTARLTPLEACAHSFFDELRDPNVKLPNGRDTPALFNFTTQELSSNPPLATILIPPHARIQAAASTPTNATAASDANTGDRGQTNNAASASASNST

Compound: 12-(4-ethoxy)-butoxyberbamine [reference compound]
EC50 (GSK-3β): > 10 µM
Forced swimming Immobility time ([1]; 30 mg/kg intragastric daily): 179.5 ± 6.3 s
Forced swimming Immobility time ([1]; 60 mg/kg intragastric daily): 175.3 ± 8.4 s
Sucrose solution preference ([2]; 30 mg/kg intragastric daily): 54.19 ± 4.45%
Sucrose solution preference ([2]; 60 mg/kg intragastric daily): 53.27 ± 3.55%
Autonomous movement Distance ([3]; 30 mg/kg intragastric daily): 1367.52 ± 683.88 mm
Autonomous movement Speed ([3]; 30 mg/kg intragastric daily): 4.56 ± 1.74 mm/second
Autonomous movement Distance ([3]; 60 mg/kg intragastric daily): 935.73 ± 586.51 mm
Autonomous movement Speed ([3]; 60 mg/kg intragastric daily): 3.12 ± 1.31 mm/second
Percentage of entries into open arms relative to total entries into arms ([4]; 30 mg/kg intragastric daily): 36.6 ± 1.7%
Percentage of residence time in open arms ([4]; 30 mg/kg intragastric daily): 40.1 ± 4.5%
Percentage of entries into open arms relative to total entries into arms ([4]; 60 mg/kg intragastric daily): 37.2 ± 1.3%
Percentage of residence time in open arms ([4]; 60 mg/kg intragastric daily): 39.2 ± 3.5%
anti-anxiety-like effect [4]: no anti-anxiety-like effect
amelioration effect on depression-like behaviors [5]: no amelioration effect

Compound: 12-acetoxyberbamine [reference compound]
EC50 (GSK-3β): > 10 µM
Forced swimming Immobility time ([1]; 30 mg/kg intragastric daily): 179.2 ± 6.6 s
Forced swimming Immobility time ([1]; 60 mg/kg intragastric daily): 169.9 ± 7.4 s
Sucrose solution preference ([2]; 30 mg/kg intragastric daily): 54.29 ± 3.74%
Sucrose solution preference ([2]; 60 mg/kg intragastric daily): 53.34 ± 3.04%
Autonomous movement Distance ([3]; 30 mg/kg intragastric daily): 984.41 ± 542.67 mm
Autonomous movement Speed ([3]; 30 mg/kg intragastric daily): 3.28 ± 1.35 mm/second
Autonomous movement Distance ([3]; 60 mg/kg intragastric daily): 1135.49 ± 575.54 mm
Autonomous movement Speed ([3]; 60 mg/kg intragastric daily): 3.78 ± 1.46 mm/second
Percentage of entries into open arms relative to total entries into arms ([4]; 30 mg/kg intragastric daily): 38.2 ± 1.8%
Percentage of residence time in open arms ([4]; 30 mg/kg intragastric daily): 41.9 ± 3.7%
Percentage of entries into open arms relative to total entries into arms ([4]; 60 mg/kg intragastric daily): 36.8 ± 1.6%
Percentage of residence time in open arms ([4]; 60 mg/kg intragastric daily): 43.3 ± 3.4%
anti-anxiety-like effect [4]: no anti-anxiety-like effect
amelioration effect on depression-like behaviors [5]: no amelioration effect

EC50 (GSK-3β): > 10 µM
Compound: COc1ccc2cc1Oc1ccc(cc1)CC1c3cc(c(OC)cc3CCN1C)Oc1c(OC)c(OC)c(OC)c3c1C(C2)N(C)CC3 (centres unmarked) [5,7-dimethoxy-fangchinoline, reference compound]
Sucrose solution preference ([2]; 30 mg/kg intragastric daily): 53.7 ± 4.8%
Sucrose solution preference ([2]; 60 mg/kg intragastric daily): 55.3 ± 4.2%
Autonomous movement Distance ([3]; 30 mg/kg intragastric daily): 1189.64 ± 315.84 mm
Autonomous movement Speed ([3]; 30 mg/kg intragastric daily): 3.97 ± 1.48 mm/second
Autonomous movement Distance ([3]; 60 mg/kg intragastric daily): 936.47 ± 366.32 mm
Autonomous movement Speed ([3]; 60 mg/kg intragastric daily): 3.12 ± 1.42 mm/second
Percentage of entries into open arms relative to total entries into arms ([4]; 30 mg/kg intragastric daily): 38.9 ± 1.8%
Percentage of residence time in open arms ([4]; 30 mg/kg intragastric daily): 43.2 ± 4.1%
Percentage of entries into open arms relative to total entries into arms ([4]; 60 mg/kg intragastric daily): 37.2 ± 1.4%
Percentage of residence time in open arms ([4]; 60 mg/kg intragastric daily): 42.8 ± 4.8%
anti-anxiety-like effect [4]: no anti-anxiety-like effect
amelioration effect on depression-like behaviors [5]: no amelioration effect

EC50 (GSK-3β): 1.68 µM
melting point: 174.8 to 176.3 °C
Compound: CCCOc1c(OC)cc2c3c1Oc1cc4c(cc1OC)CCN(C)C4Cc1ccc(cc1)Oc1cc(ccc1OC)CC3N(C)CC2 (centres unmarked) [Compound 6, 7-propoxy fangchinoline]
Sucrose solution preference ([2]; 7.5 mg/kg intragastric daily): 79.45 ± 3.3 %
Sucrose solution preference ([2]; 15 mg/kg intragastric daily): 85.5 ± 3.6^##,$$ %
Sucrose solution preference ([2]; 30 mg/kg intragastric daily): 90.4 ± 4.3^##,$$ %
Autonomous movement Distance ([3]; 7.5 mg/kg intragastric daily): 8940.78 ± 714.35^##,$$ mm
Autonomous movement Speed ([3]; 7.5 mg/kg intragastric daily): 29.80 ± 2.64^##,$$ mm/second
Autonomous movement Distance ([3]; 15 mg/kg intragastric daily): 11574.92 ± 732.36^##,$$ mm
Autonomous movement Speed ([3]; 15 mg/kg intragastric daily): 38.58 ± 3.02^##,$$ mm/second
Autonomous movement Distance ([3]; 30 mg/kg intragastric daily): 12566.27 ± 764.42^##,$$ mm
Autonomous movement Speed ([3]; 30 mg/kg intragastric daily): 41.89 ± 4.36^##,$$ mm/second
Percentage of entries into open arms relative to total entries into arms ([4]; 7.5 mg/kg intragastric daily): 47.0 ± 2.6 %
Percentage of residence time in open arms ([4]; 7.5 mg/kg intragastric daily): 59.4 ± 3.3^##,$$ %
Percentage of entries into open arms relative to total entries into arms ([4]; 15 mg/kg intragastric daily): 50.5 ± 3.2 %
Percentage of residence time in open arms ([4]; 15 mg/kg intragastric daily): 64.1 ± 3.6^##,$$ %
Percentage of entries into open arms relative to total entries into arms ([4]; 30 mg/kg intragastric daily): 57.3 ± 4.6^##,$$ %
Percentage of residence time in open arms ([4]; 30 mg/kg intragastric daily): 66.0 ± 4.2^##,$$ %
ALT [6]: 92.3 ± 21.2 U/L
AST [6]: 99.4 ± 21.1 U/L
AST/ALT [6]: 1.08 ± 0.27

Compound: CCCCOc1c(OC)cc2c3c1Oc1cc4c(cc1OC)CCN(C)C4Cc1ccc(cc1)Oc1cc(ccc1OC)CC3N(C)CC2 (centres unmarked) [Compound 7, 7-butoxy fangchinoline]
EC50 (GSK-3β): 2.33 µM
Sucrose solution preference ([2]; 7.5 mg/kg intragastric daily): 70.7 ± 4.1 %
Sucrose solution preference ([2]; 15 mg/kg intragastric daily): 87.1 ± 3.5 %
Sucrose solution preference ([2]; 30 mg/kg intragastric daily): 86.3 ± 3.4^##,$$ %
Autonomous movement Distance ([3]; 7.5 mg/kg intragastric daily): 8823.36 ± 673.14^##,$$ mm
Autonomous movement Speed ([3]; 7.5 mg/kg intragastric daily): 29.41 ± 2.64^##,$$ mm/second
Autonomous movement Distance ([3]; 15 mg/kg intragastric daily): 9586.43 ± 756.75^##,$$ mm
Autonomous movement Speed ([3]; 15 mg/kg intragastric daily): 31.95 ± 4.02^##,$$ mm/second
Autonomous movement Distance ([3]; 30 mg/kg intragastric daily): 11768.25 ± 903.41^##,$$ mm
Autonomous movement Speed ([3]; 30 mg/kg intragastric daily): 39.23 ± 5.36^##,$$ mm/second
Percentage of entries into open arms relative to total entries into arms ([4]; 7.5 mg/kg intragastric daily): 43.4 ± 2.6 %
Percentage of residence time in open arms ([4]; 7.5 mg/kg intragastric daily): 54.7 ± 4.1^##,$$ %
Percentage of entries into open arms relative to total entries into arms ([4]; 15 mg/kg intragastric daily): 47.9 ± 4.0 %
Percentage of residence time in open arms ([4]; 15 mg/kg intragastric daily): 62.1 ± 3.4^##,$$ %
Percentage of entries into open arms relative to total entries into arms ([4]; 30 mg/kg intragastric daily): 54.3 ± 5.6^##,$ %
Percentage of residence time in open arms ([4]; 30 mg/kg intragastric daily): 61.5 ± 3.0^##,$$ %
ALT [6]: 82.4 ± 17.9 U/L
AST [6]: 93.6 ± 17.8 U/L
AST/ALT [6]: 1.14 ± 0.20
melting point: 155 to 156 °C

Reference: patent publication US9169268B2, “Use of 7-alkoxy fangchinoline compounds in preventing, alleviating and/or treating depression” (Peking University, priority 2012, dated 2015)
